According to patent US20240041970A1, “TRADITIONAL CHINESE HERBAL COMPOSITION FOR TREATING ALLERGIC CONJUNCTIVITIS AND/OR ALLERGIC RHINITIS” (EYE HOSPITAL, CHINA ACADEMY OF CHINESE MEDICAL SCIENCES, priority 2021, published 2024):

Columns and labels:
allergic rhinitis = assay: Clinical efficacy: nasal symptoms and signs (effective rate); type: in vivo, human; conditions: 1-week treatment, oral
Description: (§1) From May 10, 2021 to Aug. 23, 2021, 36 patients diagnosed with allergic conjunctivitis complicated and allergic rhinitis were collected from Eye Hospital, China Academy of Chinese Medical Sciences, and they were divided into 2 groups according to a random number table method with 20 cases in the treatment group and 16 cases in the control group.
(§2) The treatment group was orally administered with the water decoction prepared in Example 1 with one dose a day and for twice a day, and the control group was orally administered with 10 mg of cetirizine capsules once a day.
(§3) 2. Evaluation Indexes: • 1) Ocular and nasal symptoms and signs were standardly divided into 4 grades (0: none, 1: mild: 2: moderate: and 3: severe); • 2) Systemic adverse reactions and local adverse reactions in the eyes and nose were recorded.
Rhinocnesmus: (1) none; (2) mild and intermittent; (3) moderate: an ant walking sensation that can be tolerated; and (4) severe: an ant walking sensation that cannot be tolerated.
Sneezing (number of consecutive sneezings): (1) none; (2) mild: 3-9; (3) moderate: 10-14; (4) severe: ≥15.
Nose running (number of nose blowings per day): (1) none; (2) mild: =4; (3) moderate: 5-9; (4) severe ≥10.
The effective rate evaluation method is based on standards established in Clinical Development Guidelines for Pharmaceutical Products for Treatment of Allergic Rhinoconjunctivitis published by the European Medicines Agency, Chinese Expert Consensus on Diagnosis and Treatment of Allergic Conjunctivitis by Chinese Journal of Ophthalmology, 2018, and Guidelines for Diagnosis and Treatment of Allergic Rhinitis (Chinese Journal of Otorhinolaryngology Head and Neck Surgery, 2016. Vol. 51), and is divided into 4 grades (0: none; 1: mild; 2: moderate; and 3: severe), and it is considered effective if two symptoms (or signs) are improved by one grade or more, or same symptom (or sign) is improved by two grades or more. ((2) to (1), (3) to (2) or (4) to (3) represents a one-grade improvement, and (3) to (1) represents a two-grade improvement).

allergic conjunctivitis = assay: Clinical efficacy: ocular symptoms and signs (effective rate); type: in vivo, human; conditions: 1-week treatment, oral
Description: as §1, §2, §3
Eye itching: (1) none; (2) mild: the patient won't notice eye itching when busy at work, but can feel itching when free, or has intermittent eye itching, but it's not severe enough to need to be scratched with hand; (3) moderate: the patient has obvious eye itching, and can still tolerate this symptom, but has the desire to scratch it with hand; and (4) severe: the patient has very obvious and continuous eye itching and stabbing pain, and cannot tolerate these symptoms, and therefore normal life is affected.
Conjunctival congestion: (1) none; (2) mild: congestion takes place in palpebral conjunctiva and fornix in a reticular form; (3) moderate: congestion takes place in palpebral conjunctiva, fornix and bulbar conjunctiva in a reticular form; and (4) severe: congestion takes place in palpebral conjunctiva in a form of red patches, blood vessels are blurred, and obvious congestion takes place in fornix and bulbar conjunctiva;
Conjunctival edema: (1) none; (2) bulbar conjunctival edema can be seen under a slit lamp examination; (3) moderate; bulbar conjunctival edema can be directly seen under natural light; and (4) severe: bulbar conjunctival edema with vesicular protuberances; […]

## O=C(O)COCCN1CCN(C(c2ccccc2)c2ccc(Cl)cc2)CC1 (stereo not drawn) [cetirizine]
Allergic rhinitis
  Effective Rate (nasal efficacy): 75.0%
Allergic rhinitis; number of patients
  Effective (nasal efficacy): 12
  Ineffective (nasal efficacy): 4
Allergic conjunctivitis
  Effective Rate (ocular efficacy): 68.75%
Allergic conjunctivitis; number of patients
  Effective (ocular efficacy): 11
  Ineffective (ocular efficacy): 5
